Measurements: US10526320B2, “Pyrrolidine derivatives as PPAR agonists” (GUANGDONG RAYNOVENT BIOTECH CO., LTD., priority 2016, dated 2020)
Read-outs that look alike come from different tables or passages of the source.

Experiments:
[1] = target: T1, PPAR Delta (Homo sapiens, UniProt Q03181); assay: PathHunter NHR protein interaction / nuclear translocation agonist test, PPAR Delta; format: cell-based; conditions: for Emax: read-out: PPAR Delta Maximum Activation Response %
T1 sequence (Q03181 1-441): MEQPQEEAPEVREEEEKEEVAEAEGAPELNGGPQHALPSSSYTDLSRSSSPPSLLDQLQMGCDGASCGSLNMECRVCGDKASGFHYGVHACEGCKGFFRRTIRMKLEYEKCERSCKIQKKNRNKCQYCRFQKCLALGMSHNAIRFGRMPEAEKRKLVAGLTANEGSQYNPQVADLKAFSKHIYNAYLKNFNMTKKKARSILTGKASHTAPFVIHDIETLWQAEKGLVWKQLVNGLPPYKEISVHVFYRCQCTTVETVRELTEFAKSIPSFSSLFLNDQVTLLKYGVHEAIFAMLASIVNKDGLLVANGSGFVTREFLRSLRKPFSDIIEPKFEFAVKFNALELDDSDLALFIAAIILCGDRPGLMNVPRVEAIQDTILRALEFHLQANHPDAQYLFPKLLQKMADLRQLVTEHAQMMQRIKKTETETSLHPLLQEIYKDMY

[2] = target: T2, PPAR Alpha (Homo sapiens, UniProt Q07869); assay: PathHunter NHR protein interaction / nuclear translocation agonist test, PPAR Alpha; format: cell-based; conditions: for Emax: read-out: PPAR Alpha Maximum Activation Response %
T2 sequence (Q07869 1-468): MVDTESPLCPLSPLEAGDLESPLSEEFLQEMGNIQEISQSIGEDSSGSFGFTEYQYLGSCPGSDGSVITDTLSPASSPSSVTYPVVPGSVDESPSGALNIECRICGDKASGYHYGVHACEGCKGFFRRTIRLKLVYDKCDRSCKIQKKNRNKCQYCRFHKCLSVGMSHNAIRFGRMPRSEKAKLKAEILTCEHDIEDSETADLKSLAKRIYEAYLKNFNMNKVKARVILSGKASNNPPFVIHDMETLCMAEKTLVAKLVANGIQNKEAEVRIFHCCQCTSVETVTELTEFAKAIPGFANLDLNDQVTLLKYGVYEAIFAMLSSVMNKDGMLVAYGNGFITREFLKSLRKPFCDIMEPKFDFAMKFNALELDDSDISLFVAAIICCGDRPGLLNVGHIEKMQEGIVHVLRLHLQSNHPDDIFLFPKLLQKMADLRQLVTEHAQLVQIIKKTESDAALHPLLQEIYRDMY

[3] = agonist mode, read-out: PPAR Delta EC50
[4] = agonist mode, read-out: PPAR Alpha EC50
[5] = relative to known PPARδ agonist L-165,041 = 100%

SMILES | EC50 [1, 3] [nM] | Emax [1] [%] | EC50 [2, 4] [nM] | Emax [2] [%] | Emax [1, 5] [%] | EC50 ([1]; PPAR Delta EC50 nM) [nM] | EC50 ([2]; PPAR Alpha EC50 nM) [nM]
CSc1ccc(C(=O)[C@H]2CN(C(=O)Oc3cnn(C)c3)C[C@@H]2Cc2cc(C)c(OC(C)(C)C(=O)O)c(C)c2)cc1 (racemic) [Compound 48] | 100 to 150 | 50 to 80 | < 100 | 50 to 80 |  |  | 
CSc1ccc(C(=O)[C@@H]2CN(C(C)=O)C[C@H]2CCc2cc(C)c(OC(C)(C)C(=O)O)c(C)c2)cc1 (racemic) [Compound 71] | 150 to 200 | 80 to 100 | 200 to 250 | 80 to 100 |  |  | 
CSc1ccc(C(=O)[C@H]2CN(C(=O)OCCC(C)C)C[C@@H]2CCc2cc(C)c(OC(C)(C)C(=O)O)c(C)c2)cc1 (racemic) [Compound 72] | 100 to 150 |  | < 100 | 80 to 100 | 80 to 100 |  | 
CSc1ccc(C(=O)C2CN(C3COC3)C[C@@H]2CCc2cc(C)c(OC(C)(C)C(=O)O)c(C)c2)cc1 (mixture of isomers) [Compound 73] | > 250 |  | 200 to 250 | 80 to 100 | 80 to 100 |  | 
CSc1ccc(C(=O)C2CN(C(=O)OC(C)C)CC2c2cc(C)c(OC(C)(C)C(=O)O)c(C)c2)cc1 (single isomer, unassigned) [Compound 7] | > 250 | 50 to 80 | > 250 | 50 to 80 |  |  | 
CSc1ccc(C(=O)C2CN(S(C)(=O)=O)CC2c2cc(C)c(OC(C)(C)C(=O)O)c(C)c2)cc1 (single isomer, unassigned) [Compound 18] | > 250 |  | 200 to 250 | 80 to 100 | 50 to 80 |  | 
CSc1ccc(C(=O)C2CN(S(N)(=O)=O)CC2c2cc(C)c(OC(C)(C)C(=O)O)c(C)c2)cc1 (single isomer, unassigned) [Compound 19] | > 250 |  | 200 to 250 | 80 to 100 | 50 to 80 |  | 
CSc1ccc(C(=O)C2CN(C(C)=O)CC2c2cc(C)c(OC(C)(C)C(=O)O)c(C)c2)cc1 (single isomer, unassigned) [Compound 21] | > 250 | 50 to 80 | > 250 | 80 to 100 |  |  | 
CSc1ccc(C(=O)C2CN(C(=O)Oc3ccc(Cl)cc3)CC2Cc2cc(C)c(OC(C)(C)C(=O)O)c(C)c2)cc1 (single isomer, unassigned) [Compound 27] | < 100 | 50 to 80 | < 100 | 80 to 100 |  |  | 
CSc1ccc(C(=O)C2CN(C(=O)Oc3ccc(F)cc3)CC2Cc2cc(C)c(OC(C)(C)C(=O)O)c(C)c2)cc1 (single isomer, unassigned) [Compound 28] | < 100 | 50 to 80 | < 100 | 80 to 100 |  |  | 
CSc1ccc(C(=O)C2CN(C(=O)Oc3ccc(Cl)cc3)CC2c2cccc(OC(C)(C)C(=O)O)c2)cc1 (single isomer, unassigned) [Compound 33] | > 250 | 50 to 80 | 200 to 250 | 80 to 100 |  |  | 
CSc1ccc(C(=O)C2CN(C(=O)Oc3ccc(F)cc3)CC2c2cc(C)c(OC(C)(C)C(=O)O)c(C)c2)cc1 (single isomer, unassigned) [Compound 35] | 150 to 200 | 50 to 80 | 200 to 250 | 80 to 100 |  |  | 
CSc1ccc(C(=O)C2CN(C(=O)Oc3cccc(Cl)c3)CC2c2cc(C)c(OC(C)(C)C(=O)O)c(C)c2)cc1 (single isomer, unassigned) [Compound 38] | 150 to 200 |  | < 100 | 80 to 100 |  |  | 
CSc1ccc(C(=O)C2CN(C(=O)Oc3ccc(C)cc3)CC2c2cc(C)c(OC(C)(C)C(=O)O)c(C)c2)cc1 (single isomer, unassigned) [Compound 39] | 100 to 150 | 80 to 100 | < 100 | 80 to 100 |  |  | 
CSc1ccc(C(=O)[C@@H]2CN(C(=O)Oc3ccc(C(C)C)cc3)C[C@H]2c2cc(C)c(OC(C)(C)C(=O)O)c(C)c2)cc1 (single isomer, unassigned) [Compound 40] | 100 to 150 |  | < 100 | 80 to 100 | 80 to 100 |  | 
CSc1ccc(C(=O)[C@@H]2CN(C(=O)Oc3ccc(Cl)cc3Cl)C[C@H]2c2cc(C)c(OC(C)(C)C(=O)O)c(C)c2)cc1 (single isomer, unassigned) [Compound 41] | < 100 |  | < 100 | 80 to 100 | 80 to 100 |  | 
CSc1ccc(C(=O)[C@@H]2CN(C(=O)Oc3ccc(Cl)cc3F)C[C@H]2c2cc(C)c(OC(C)(C)C(=O)O)c(C)c2)cc1 (single isomer, unassigned) [Compound 42] | < 100 |  | < 100 | 80 to 100 | 80 to 100 |  | 
CSc1ccc(C(=O)[C@@H]2CN(C(=O)Oc3ccc(Cl)c(Cl)c3)C[C@H]2c2cc(C)c(OC(C)(C)C(=O)O)c(C)c2)cc1 (single isomer, unassigned) [Compound 43] | < 100 |  | < 100 | 80 to 100 | 80 to 100 |  | 
CSc1ccc(C(=O)[C@@H]2CN(C(=O)Oc3ccccc3)C[C@H]2CCc2cc(C)c(OC(C)(C)C(=O)O)c(C)c2)cc1 (single isomer, unassigned) [Compound 51] | < 100 | 80 to 100 | < 100 |  |  |  | 
CSc1ccc(C(=O)[C@@H]2CN(C(=O)Oc3ccccc3)C[C@H]2CCc2cc(C)c(OC(C)(C)C(=O)O)c(C)c2)cc1 (single isomer, unassigned) [Compound 52] | < 100 |  | < 100 |  |  |  | 
CSc1ccc(C(=O)[C@H]2CN(C(=O)Oc3ccccc3)C[C@@H]2CCc2cc(C)c(OC(C)(C)C(=O)OC(C)C)c(C)c2)cc1 (single isomer, unassigned) [Compound 61] |  | < 50 |  | < 50 |  | > 250 | > 250
Cc1cc(CCC2CN(C(=O)Oc3ccccc3)CC2C(=O)c2ccccc2)cc(C)c1OC(C)(C)C(=O)O (single isomer, unassigned) [Compound 62] | 100 to 150 |  | 100 to 150 | 80 to 100 | 80 to 100 |  | 
CSc1ccc(C(=O)C2CN(C(=O)OC3CCCC3)CC2CCc2cc(C)c(OC(C)(C)C(=O)O)c(C)c2)cc1 (single isomer, unassigned) [Compound 74] | 100 to 150 |  | < 100 | 80 to 100 | 80 to 100 |  | 
CSc1ccc(C(=O)[C@@H]2CN(S(C)(=O)=O)C[C@H]2CCc2cc(C)c(OC(C)(C)C(=O)O)c(C)c2)cc1 (single isomer, unassigned) [Compound 75] | 200 to 250 |  | > 250 | 80 to 100 | 80 to 100 |  | 
CSc1ccc(C(=O)C2CN(C(=O)Oc3ccccc3)CC2Cc2ccc(OC(C)(C)C(=O)O)cc2F)cc1 (single isomer, unassigned) [Compound 83] | 200 to 250 |  | 100 to 150 | 80 to 100 | 80 to 100 |  | 
CSc1ccc(C(=O)C2CN(C(=O)Oc3ccc(Br)cc3)CC2Cc2cc(C)c(OC(C)(C)C(=O)O)c(C)c2)cc1 (centres unmarked) [Compound 29] | < 100 | 80 to 100 | < 100 | 80 to 100 |  |  | 
COCCN1CC(CCc2cc(C)c(OC(C)(C)C(=O)O)c(C)c2)C(C(=O)c2ccc(SC)cc2)C1 (centres unmarked) [Compound 59] | 200 to 250 |  | 200 to 250 | 50 to 80 | 50 to 80 |  | 
